Measurements as given in US8912227B1, “Bicyclic pyrrole derivatives useful as agonists of GPR120” (Janssen Pharmaceutica NV, priority 2014, dated 2014).

Assays:
Human GPR120 short form [1] = target: T1, Human GPR120 short form (Homo sapiens, UniProt Q5NUL3); assay: Human GPR120 calcium flux assay, Procedure Calcium A; type: cell-based; details: HEK-293 cells expressing human GPR120 short form, 2500 cells/well, FLIPR
T1 construct: expressed in transfected cells
T1 sequence (Q5NUL3 1-361): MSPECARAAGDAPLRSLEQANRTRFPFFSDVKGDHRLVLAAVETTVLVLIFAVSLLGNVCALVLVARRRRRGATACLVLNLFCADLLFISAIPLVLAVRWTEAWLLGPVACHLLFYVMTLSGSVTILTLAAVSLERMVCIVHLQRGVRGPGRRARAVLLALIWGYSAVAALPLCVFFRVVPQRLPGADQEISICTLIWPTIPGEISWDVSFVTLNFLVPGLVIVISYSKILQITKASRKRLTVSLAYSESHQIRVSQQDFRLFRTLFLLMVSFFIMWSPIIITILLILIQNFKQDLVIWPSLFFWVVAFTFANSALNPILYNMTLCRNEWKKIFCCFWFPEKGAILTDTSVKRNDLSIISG
Source text: (§1) This in vitro assay serves to assess test compound agonist activity against the short splice variant (SVS with Accession number NM_001195755.1 confirmed by sequencing data) of the GPR120 receptor. The Human Short splice variant #2 (NM_001195755.1) is missing an in-frame coding exon compared to variant 1 (the Human Long splice variant NM_181745.3), resulting in a shorter isoform (GPR120-S) lacking a 16 aa protein segment compared to isoform GPR120-L. The assay platform utilizes HEK-293 cells stably transfected to express the Human GPR120 short form. These cells are first loaded with the Ca^+2 sensitive dye, Fluo-4 NW. Upon stimulation, intracellular released Ca^+2 can bind to the dye and alter its fluorescence intensity. This increase in fluorescence signal, and thus the flux in intracellular [Ca^2+], is detected and quantitated by fluorescence imaging using a FLIPR reader. The effect of the agonist is measured as a function of concentration and used to calculate an EC50 based upon a response curve.
In this procedure 2500 cells/well were employed.
(§2) A Human GPR120 clone (Genbank accession number NM_001195755.1) was placed into the pcDNA3.1 mammalian expression vector carrying the neomycin resistance gene. A stable mammalian cell was generated by placing the above clone into a HEK293 background. Clonal cells responding to long chain fatty acids had expression levels of GPR120 confirmed by RT-qPCR. Human HEK-GPR120 cells were cultured in Dulbecco's Modified Eagle's Medium (DMEM)/F12 medium supplemented with 10% fetal bovine serum (FBS), 1% L-Glutamine and 1% penicillin/streptomycin and 0.5 mg/ml G-418. Cells were split 2 times a week to keep the cells in the log-phase growth.
(§3) In preparation for the assay, HEK cells stably transfected with Human GPR120 (2.5K cells per well in 25 uL growth medium) were seeded into 384-well plates and then incubated overnight (37° C., 5% CO2). The next day, the media was changed to 20 μl assay buffer and the cell starved for 1 h at 37° C. The dye loading solution (2× dye) was prepared using 10 ml assay buffer, 100 μl of 250 mM probenecid, 1 bottle of Component A, and 20 μl of dye in DMSO. Twenty μl of the 2× dye loading buffer was then added to each well. The plates were incubated at 37° C. for 30 min, then at room temperature for an additional 15 minutes, before performing the assay on FLIPR.
(§4) Test compounds were prepared in assay buffer (2 μl of test compound+198 μl assay buffer, final DMSO in assay plate is 0.2%) at the desired concentration, more particularly at 100 μM, 50 μM, 25 μM, 12.5 μM, 6.25 μM, 3.125 μM, 1.562 μM, 0.781 μM, 0.391 μM, 0.195 μM, 0.098 μM, 0.049 μM, 0.024 μM and 0.012 μM.
(§5) The assay was performed on a FLIPR plate reader using the following parameters. Baseline was read for 10 seconds at 1 sec intervals. The program was set to transfer 10 μL of ligand from compound plate to cell plate after baseline reading. Aspiration was executed at: 10 μl/sec speed, 4.6 μl height; Dispensing was executed at: 30 μl/sec speed, 45 μl height. After compound addition, each well was read for 300 sec, with measurements collected at 1 sec intervals.
(§6) The kinetic data from the FLIPR was based upon a 5 minute window for data collection. The fluorescence of each sample well was used for individual calculations of a normalized RFU value, which was defined as maximum response minus the minimum response. The normalized fluorescence reading (RFU) was calculated as follows: RFU=Fmax−Fmin
(§7) The data were fitted to a sigmoidal dose-response curve with a variable Hill slope (<2) using nonlinear regression with GraphPad Prism 5.0 to calculate the EC50 values. The Fitting Equation was: Y=Bottom+(Top−Bottom)/(1+10^((LogEC50−X)*HillSlope)), where X is the log of the concentration and Y is the response.

Human GPR120 short form [2] = target: T1, Human GPR120 short form; assay: Human GPR120 calcium flux assay, Procedure Calcium B; type: cell-based; details: HEK-293 cells expressing human GPR120 short form, 4200 cells/well, FLIPR
Source text: as §1
In this procedure 4200 cells/well were employed.
as §2, §3, §4, §5, §6, §7

EC50 (Human GPR120 short form [1]) [nM] | EC50 (Human GPR120 short form [2]) [nM] | Structure (SMILES)
1260 | 247 | CCc1ccc(-n2ccc(C(F)(F)F)c2COc2ccc(CCCO)c(F)c2F)cc1 [Compound 41, 3-(4-[[1-(4-ethylphenyl)-3-(trifluoromethyl)-1H-pyrrol-2-yl]methoxy]-2,3-difluorophenyl)propan-1-ol]
1920 | 896 | CCc1ccc(-n2ccc(C(F)(F)F)c2COc2ccc(CCCO)c(C)c2C)cc1 [Compound 40, 3-(4-[[1-(4-ethylphenyl)-3-(trifluoromethyl)-1H-pyrrol-2-yl]methoxy]-2,3-dimethylphenyl)propan-1-ol]
1560 | 899 | Cc1c(CCCO)ccc(OCc2c(Br)ccn2-c2ccc(Cl)cc2)c1C [Compound 13, 3-(4-{[3-Bromo-1-(4-chlorophenyl)-1H-pyrrol-2-yl]methoxy}-2,3-dimethylphenyl)propan-1-ol]
1990 | 428 | Cc1ccc(-n2ccc(C(F)(F)F)c2COc2ccc(CCC(=O)O)c(F)c2F)cn1 [Compound 53, 3-(2,3-Difluoro-4-{[1-(6-methylpyridin-3-yl)-3-(trifluoromethyl)-1H-pyrrol-2-yl]methoxy}phenyl)propanoic acid]

Continued, compound first:

Structure (SMILES) | EC50 (Human GPR120 short form [1]) [nM] | EC50 (Human GPR120 short form [2]) [nM]
Cc1c(CCC(=O)O)ccc(OCc2c(C(F)(F)F)ccn2-c2ccc(Br)cc2)c1C [Compound 23, 3-(4-{[1-(4-Bromophenyl)-3-(trifluoromethyl)-1H-pyrrol-2-yl]methoxy}-2,3-dimethylphenyl)propanoic acid] | 1110 | 199
CCc1ccc(-n2ccc(C(F)(F)F)c2COc2c(F)cc(CCC(=O)O)cc2F)cn1 [Compound 56, 3-(4-[[1-(6-ethylpyridin-3-yl)-3-(trifluoromethyl)-1H-pyrrol-2-yl]methoxy]-3,5-difluorophenyl)propanoic acid] | 1410 | 877
O=C(O)CCc1ccc(OCc2c(C(F)(F)F)ccn2-c2ccc(Br)cc2)c(F)c1F [Compound 20, 3-(4-{[1-(4-Bromophenyl)-3-(trifluoromethyl)-1H-pyrrol-2-yl]methoxy}-2,3-difluorophenyl)propanoic acid] | 1270 | 289
N#Cc1ccn(-c2ccc(Cl)cc2)c1COc1ccc(CCC(=O)O)c(F)c1F [Compound 9, 3-(4-{[1-(4-Chlorophenyl)-3-cyano-1H-pyrrol-2-yl]methoxy}-2,3-difluorophenyl)propanoic acid] | 3710 | 1360
COc1ccc(-n2ccc(C(F)(F)F)c2COc2ccc(CCC(=O)O)c(F)c2F)cn1 [Compound 57, 3-(2,3-difluoro-4-((1-(6-methoxypyridin-3-yl)-3-(trifluoromethyl)-1H-pyrrol-2-yl)methoxy)phenyl)propanoic acid trifluoroacetic acid] | 840 | 77
